In patent US5264423A, “Inhibitors for replication of retroviruses and for the expression of oncogene products” (The United States of America as represented by the …, priority 1992, dated 1993):
Entries after “also recorded” stand apart in the source; their conditions may differ.

Key:
[1] = tested on: HL60 cells; test: HL60 cell growth (cell count); type: cell-based; details: in words
[2] = tested on: HIV (HTLV-IIIB) in ATH8 cells; test: HIV cytopathic effect inhibition (viable ATH8 cells, trypan blue); details: for protection of target cells, single agent: each agent alone (2 micromoles dideoxyadenosine; 5 micromoles S-dC14), 1000 virions per cell, day 13; for anti-HIV activity (cytopathic effect): in words
Experimental: FIGS. 1A-1D and Table 1, The target cells (2×10^5 ATH8 cells) in each tube were pretreated with the stated concentration of each oligomer for 16 hours and then incubated with Polybrene for 45 minutes. After centrifugation, each set of pelleted cells was exposed to HIV (500 virions per cell, which is a much higher dose than the minimal cytopathic dose) and incubated for one hour. Complete media (2 ml RPMI1640) supplemented with L-glutamine (4 mti), 2-mercaptoethanol ([…]), penicillin (50 unit/ml), and streptomycin (50 micrograms/ml), and containing 15% fetal calf serum and IL-2 (15% of conventional IL-2 from Advanced Biotechnologies, Inc., Silver Spring, MD, plus 20 unit/ml of recombinant IL-2 from Amgen Biochemicals, Thousand Oaks, CA) with the various concentrations of oligomers added. The number of viable cells were counted in a hemocytometer using the trypan blue exclusion method for day 7 following exposure to the virus. Filled columns represent non-virus exposed cells, and dotted columns represent virus exposed cells.
The HIV cytopathic effect inhibition with oligodeoxynucleotides was performed with 18 hours of pretreatment of 2×10^5 target cells (ATH8 cells) with oligos prior to exposure to HTLV-IIIB. After this pretreatment, target cells were treated with Polybrene (2 micrograms/ml) for one hour. The target cells were then, respectively, exposed to HTLV-IIIB virus (generally 500 virions per cell in this series of experiments) for one hour. The 2×10^5 cells were then diluted to 2 ml with complete media containing IL-2 and various concentrations of oligos.
The number of viable cells was counted in a hemocytometer using the trypan blue exclusion method on day 7 following exposure to the virus. Each set of data were obtained from simultaneously performed experiments so as to make a precise comparison among agents tested.
The target cells (2×10^5 ATH8 cells per tube) were preincubated with the stated concentrations of S-dC14 for 24 hours and pretreated with 2 micrograms/ml of Polybrene for 45 minutes. After centrifugation, pelleted cells were exposed to the HIV (1000 virions per cell) for one hour. The cells were incubated in 2 ml of complete media containing IL-2, and the viable cells were counted on day 13.
On day 13 after the exposure to the virus, viable cells were counted by the trypan blue dye exclusion method.

[3] = tested on: de novo HIV DNA synthesis in ATH8 cells; test: Southern blot of de novo HIV DNA synthesis; type: cell-based; details: positive control, 50 micromoles (lanes E and J)
Source text: Target cells (1×10^7 ATH8 cells) were pretreated with or without S-dC28 at various concentrations for sixteen hours, then treated with Polynrene, exposed to HIV (500 virus particles per cell), resuspended, and cultured in the presence or absence of S-dC28. On days 4 and 7 following the exposure to the virus, high molecular weight DNA was extracted, digested with Asp718 (a Kpn I isoschizomer from Boehringer-tiannheim, Indianapolis, IN), and subjected to Southern blot analysis hybridized with a labelled insert of molecular clone of the env region of HTLV-III (BH10) containing a 1.3 Kb Bgl II fragment.
FIGS. 6A-6D show the inhibitor effect of the phosphorothioate oligodeoxycytidine analog (S-dC28) on de novo HIV DNA synthesis in target cells. On days 4 and 7 following the exposure to the virus, a substantial amount of viral DNA was detected by Southern blot analysis without antiviral agents.
On day 4, shown in lanes A-E, and day 7, shown in lanes F-J, following exposure to the virus, high molecular weight DNA was extracted. Lanes A and F contain DNA from ATH8 cells that were exposed to the virus and not protected by S-dC28. Lanes B and G, C and H, D and I, contain DNA from ATH8 cells pretreated and cultured with 1 micromole, 5 micromoles, and 7 micromoles S-dC28, respectively. Lanes E and J contain DNA from ATH8 cells treated with 50 micromoles 2', 3'-dideoxyadenonsine, and lane K contains DNA from ATH8 cells that was not exposed to the virus.

[4] = tested on: ATH8 cells; test: Cytotoxicity of ODNs (Table 2); type: cell-based
Source text: Since phosphorothioate ODNs which are not anti-sense sequences appear to be very effective antiviral agents, an attempt was made to clarify the nature of the base composition effect.

[5] = tested on: gamma-interferon; test: Induction of gamma-interferon in culture supernatant; type: cell-based; details: supernatant of the culture
Source text: Another mechanism which should be considered is induction of interferon production such as that proposed for phosphorothioate analogs of poly-r(I-C). […] Also, since there are no data to support the concept that phosphorothioate internucleotide linkages have a thiol character, and can thus form disulfides, the mechanism of action would likely be different from that proposed for antiviral polynucleotides having thiolated bases such as 5-mercapto-cytosine or -uracil.

[6] = Stability in in vitro test media followed by 31P NMR; type: in vitro ADME
Source text: The phosphorothioate oligodeoxynucleotides of the present invention have suitable chemical characteristics, namely, the ability to hybridize with complementary DNA/MRNA under physiological conditions, and better solubility properties relative to methylphosphonates. Moreover, the thioesters are as soluble in biological media as the parent compounds.
Thus, it is believed that it is mainly the relative resistance of the phosphorothioate analogs to nucleases that preserves them relative to n-ODNs, and allows them to reach and remain at their target site. This was supported in relation to the media used in the in vitro test system by following the 31P NMR spectra of the n-ODN-1 and S-ODN-1 compounds as a function of time.

[7] = tested on: exo- and endonuclease P1; test: Nuclease susceptibility, P1 nuclease; type: in vitro ADME
Source text: (§1) Several oligodeoxynucleotides were studied with regard to DNase sensitivity, cf. Table 5. These include cytidine homopolymers, ODN-4 (an anti-message 28-mer complementary to the 3' region of the art/trs region of HIV BH10 clone), and myc-1 (a 15-mer complementary to the initiation codon region of the C-myc oncogene). The DNases employed were predominantly endonuclease S1, the exo- and endonuclease P1, and snake venom (SV) phosphodiesterase. The concentration of S1 nuclease was ten-fold higher (100 micromoles/ml) for reactions of oligo-dc, since both the normal and PS analog were degraded extremely slowly be this enzyme. S1 and P1 nuclease digestion proceeded at 2-45 times more slowly for the S-ODNs than for the normal oligomers, with the […] being somewhat more readily digested than the 28-mer.

[8] = Stability in human serum; type: in vitro ADME; details: 31P NMR
[9] = tested on: endonuclease S1; test: Nuclease susceptibility, S1 nuclease; type: in vitro ADME
Source text: as §1

[10] = tested on: snake venom (SV) phosphodiesterase; test: Nuclease susceptibility, snake venom phosphodiesterase; type: in vitro ADME
Source text: as §1

Row | Compound | CYTOTOXICITY (%) ([4]; 1 uM) | CYTOTOXICITY (%) ([4]; 5 uM) | CYTOTOXICITY (%) ([4]; 10 uM) | CYTOTOXICITY (%) ([4]; 25 uM) | ANTI-VIRAL EFFECT (%) ([2]; 1 uM) | ANTI-VIRAL EFFECT (%) ([2]; 5 uM) | ANTI-VIRAL EFFECT (%) ([2]; 10 uM) | ANTI-VIRAL EFFECT (%) ([2]; 25 uM) | anti-HIV activity (cytopathic effect) [2] | also measured
1 | 5'-CTG AAG TGG CAT GAG (CTGAAGTGGCATGAG; all phosphorothioate, sugars by position and methylation of C not given here) [non-sense sequence, reference compound] |  |  |  |  |  |  |  |  |  | effect on HL60 cell proliferation [1]: none of the controls used, namely, the non-sense sequence, has shown similar activity; effect on HL60 cell proliferation ([1]; listed as nonsense S-ODN): not all nonsense S-ODN concentrations affected cell proliferation
2 | Nc1ncnc2c1ncn2[C@H]1CC[C@@H](CO)O1 [2', 3'-dideoxyadenosine, reference compound] |  |  |  |  |  |  |  |  |  | protection of target cells, single agent [2]: only marginal protective effects; inhibition of de novo synthesis of viral DNA [3]: significantly inhibited the de novo synthesis of viral DNA; inhibition of de novo synthesis of viral DNA ([3]; listed as 2', 3'-dideoxyadenonsine): detected only in lanes A and F
3 | Nc1ccn([C@H]2CC[C@@H](CO)O2)c(=O)n1 [2', 3'-dideoxycytidine, reference compound] |  |  |  |  |  |  |  |  |  | protection against the virus / antiviral activity ([2]; 0.5 micromoles): complete antiviral activity
4 | (dC)n n = 14 [S-dC14] | 0 | 0 | 0 | 0 | 25 | 100 | 100 | 100 | most potent antiviral compound among those tested in this series of experiments | induction of gamma-interferon [5]: No induction of gamma-interferon; protection against the virus ([2]; 5 micromoles (65 micromole equivalents), FIGS. 6B-6D): only a moderate effect; protection of target cells, single agent [2]: only marginal protective effects; anti-HIV activity (cytopathic effect) ([2]; listed as 14-mer oligo-dc): substantial protection against HIV cytopathic effect
5 | d-(Cs As Ts As Gs Gs As Gs As Ts Gs Cs Cs T) [S-ODN-3] | 0 | 0 | 0 | 13 | 0 | 6 | 44 | 94 |  | 
6 | d-(Gs Gs As Gs As Cs As Gs Cs Gs As Cs Gs A) [S-ODN-2] | 0 | 0 | 0 | 6 | 11 | 56 | 100 | 78 | protected against HIV | 
7 | d-(Ts Cs Gs Ts Cs Gs Cs Ts Gs Ts Cs Ts Cs C) [S-ODN-1] | 0 | 0 | 0 | 20 | 0 | 43 | 72 | 95 | substantial activity against HIV; also recorded: protected against HIV | phosphorothioate bonds after 10 days ([6]; 10 days): still intact after 10 days; decomposition based on the total signal intensity ([6]; after 10 days): less than 5%; degradation / half-life in media used in the in vitro test system ([6]; up to a week): no significant degradation even after a week
8 | dAACGTTGAGGGGCAT [O-myc-1, reference compound] |  |  |  |  |  |  |  |  |  | Nuclease susceptibility, t1/2 [7]: 69 s; half-life in 50% human serum [8]: two to three days; Nuclease susceptibility, t1/2 [9]: 36 s; Nuclease susceptibility, t1/2 [10]: 28 s
9 | dTCGTCGCTGTCTCCGCTTCTTCCTGCCA [O-ODN-4, reference compound] |  |  |  |  |  |  |  |  |  | Nuclease susceptibility, t1/2 [7]: 72 s; Nuclease susceptibility, t1/2 [10]: 20 s
10 | recombinant gamma-interferon: recombinant alpha- or gamma-interferon |  |  |  |  |  |  |  |  |  | inhibition of the cytopathic effect ([2]; 1000 units added directly to the cultures): did not inhibit the cytopathic effect
